US11358977B2, “Deuterated pyridone amides and prodrugs thereof as modulators of sodium channels” (VERTEX PHARMACEUTICALS INCORPORATED, priority 2017, dated 2022)

Assay: In vitro microsomal metabolic stability assay, human
Format: in vitro ADME
Conditions: human liver microsomes 0.25 mg/mL, 1.0 μM compound, NADPH
Procedure: Materials. Rat, Dog, Monkey and Human liver microsomes (20 mg/mL) were obtained from Xenotech, LLC (Lenexa, Kans.). P-nicotinamide adenine dinucleotide phosphate, reduced form (NADPH), magnesium chloride (MgCl2), and dimethyl sulfoxide (DMSO) were purchased from Sigma-Aldrich.
Methods. […] The 10 mM stock solutions were diluted to 100 μM in DMSO. In each cluster polypropylene tube, 190.7 μL of 100 mM phosphate buffer, pH 7.4 was added, then 2.5 μL of liver mocrosomes (20 mg/mL, rat, dog, monkey or human) was added, then a 2 μL aliquot of the 100 μM test compound was added, and the mixture was pre-warmed for 10 minutes. Reactions were initiated by addition of 4.8 μL of pre-warmed NADPH solution (100 mM in 100 mM phosphate buffer). The final reaction volume was 200 μL and contained 0.25 mg/mL rat, dog, monkey or human liver microsomes, 1.0 μM test compound, and 2.4 mM NADPH in 0.1 M potassium phosphate buffer, pH 7.4. The reaction mixtures were incubated at 37° C., and the reactions were quenched at 0, 15, 30 and 60 minutes by adding 200 μL of ice-cold quench solution (ACN:MeOH:0.1% formic acid in water 2:2:1) containing internal standard, n=3 per time point. The tubes were centrifuged and supernatants were analyzed for amounts of the test compound remaining by LC-MS/MS. The HPLC system included a Phenomenex Luna C8 column, 3 micron, 2 mm diameter×30 mm long eluted with a gradient mobile phase consisting of 0.1% formic acid in water or in acetonitrile. The analytes were detected by MS/MS with Electrospray Ionization (ESI) in the mode of multiple reaction monitoring (MRM). The injection volume was 10 μL.

[2H]C([2H])([2H])c1cc(F)ccc1Oc1cc(C(F)(F)F)ccc1C(=O)Nc1cc[nH]c(=O)c1 [Compound 7, 2-(4-fluoro-2-(methyl-d3)phenoxy)-N-(2-oxo-1,2-dihydropyridin-4-yl)-4-(trifluoromethyl)benzamide]
% remaining (0 min): 100% | % remaining (15 min): 109% | % remaining (30 min): 105% | % remaining (60 min): 106%
